# Tests used:
# [1] = system: Wild-type mouse neuroblastoma (N2a) cells; experiment: Neuronal cell differentiation in N2a cells (β-tubulin III, phospho-synapsin I; immunofluorescence and WB); format: cell-based; conditions: 10 mM, 24 h
# Description: These cells were then permeabilized with 0.05% Triton X-100 for 5 min, washed, and incubated with mouse anti-β-tubulin III monoclonal antibody ([…]™), and rabbit anti-phospho-synapsin I (Ser^62, Ser^67) polyclonal antibody (EMD Millipore) overnight at 4° C. Alexa Fluor® 488 Goat anti-mouse IgG (green) and Alexa Fluor® 594 Donkey anti-rabbit IgG (red, Life Technologies) were used to detect β-tubulin III and phospho-synapsin I signals respectively. Confocal images were taken by Olympus Fluoview™ FV1000 laser scanning confocal microscope (Tokyo, Japan).
# [2] = system: Human neural stem cells (H9-Derived); experiment: Human neural stem cell differentiation (MAP2, GFAP; immunofluorescence and WB); format: cell-based; conditions: 10 mM, 14 days
# Description: These cells were then permeabilized, washed, incubated with mouse anti-MAP2 monoclonal antibody or rabbit anti-GFAP polyclonal antibody overnight at 4° C., stained with Alexa Fluor® 488 (green) and Alexa Fluor® 594 (red), and visualized by confocal microscopy. DAPI (blue) was used to detect nuclear DNA.
# GSK3β [3] = experiment: GSK3β Tyr216 phosphorylation in brain homogenates of Fmr1 KO mice (WB); format: in vivo, mouse; conditions: 28 mg/kg/day i.p., 5 days
# Description: (§1) (6A) Mouse brain homogenates were then prepared from cerebral cortex and hippocampus and analyzed by WB with specific pGSK3α^Tyr279, pGSK3β^Tyr216 and total GSK antibodies.
# GSK3β [4] = experiment: GSK3β phosphorylation in Fmr1 KO mouse embryonic fibroblasts (WB); format: cell-based; conditions: 60 min
# Description: FIGS. 5A-5B. […] Many neurodegenerative disorders, including FXS, have been associated with enhanced GSK activity (14-16). Fmr1 KO mouse embryonic fibroblasts (Fmr1 KO MEF) have elevated levels of stimulatory GSK3β ([…]) phosphorylation compared to wild-type MEF (both cell lines kindly provided by Dr. David Nelson, Baylor College of Medicine). […] Cell lysates were then prepared and subjected to WB analysis using specific phospho-GSK3β (pGSK3β)^Tyr216, pGSK3β^Ser9 and total GSK antibodies.
# GSK3α = GSK3α Tyr279 phosphorylation in brain homogenates of Fmr1 KO mice (WB); format: in vivo, mouse; conditions: 28 mg/kg/day i.p., 5 days
# Description: as §1
# [5] = In vivo plasma and brain lithium pharmacokinetics after oral gavage (AAS); set-up: species or system Sprague-Dawley rats; conditions: for time of plasma lithium peak: sampled at 2, 24, 48, 72 h; for plasma and brain lithium level profile after oral dosing: summary of FIG. 2, up to 48 h
# Fmr1 KO mice [6] = conditions: dfmr1 mutant Drosophila and Fmr1 KO mice; cited from earlier work
# Fmr1 KO mice [7] = conditions: cited from earlier work
# [8] = male rats, 4 mEq/kg lithium, oral gavage
molecule,measurement,setting,value
"O=C(O)[C@@H]1CCCN1 [1-proline, L-proline]",neuronal cell differentiation (β-tubulin III and phospho-synapsin I immunofluorescence and WB) vs PBS,[1],no significant difference
same,"GFAP expression (gliogenesis; immunofluorescence and WB, GFAP to β-actin) vs PBS",[2],no significance difference
same,"MAP2 expression (immunofluorescence and WB, MAP2 to β-actin) vs PBS",[2],no significance difference
O=C(O)[C@@H]1CCCN1.O=C([O-])c1ccccc1O.[Li+] [LISPRO],pGSK3β Tyr216 level in cerebral cortex and hippocampus,GSK3β [3],reduced these levels
same,stimulatory pGSK3β Tyr216 level,"GSK3β [4]; Fmr1 KO MEF, 40 μM",decreased
same,total GSK3β level,"GSK3β [4]; Fmr1 KO MEF, 10, 20 or 40 μM",unchanged
same,inhibitory pGSK3β Ser9 level,"GSK3β [4]; Fmr1 KO MEF, starting at 10 μM",increased
same,pGSK3α Tyr279 level in cerebral cortex and hippocampus,GSK3α,reduced these levels
same,plasma lithium level at 2 h,"[5]; male rats, 4 mEq/kg lithium, oral gavage, 2 h",elevated
same,plasma lithium level at 48 h,[5]; [8],remained elevated
same,plasma lithium level at 72 h,"[5]; male rats, 4 mEq/kg lithium, oral gavage, 72 h",almost undetectable
same,brain lithium levels at 24 and 48 h,"[5]; male rats, 4 mEq/kg lithium, oral gavage, brain, 24 and 48 h",steady brain levels
same,time of plasma lithium peak,[5]; [8],24 h
same,plasma and brain lithium level profile after oral dosing,[5],nearly steady levels of lithium in plasma and brain for up to 48 h without the initial spike
"O=C([O-])[O-].[Li+].[Li+] [Li2CO3, lithium carbonate]",neuronal cell differentiation (β-tubulin III and phospho-synapsin I immunofluorescence and WB) vs PBS,[1],no significant difference
same,plasma lithium level at 48 h,[5]; [8],nearly undetectable
same,brain lithium level at 24 h,"[5]; male rats, 4 mEq/kg lithium, oral gavage, brain, 24 h",concomitant spike
same,time of plasma lithium peak,[5]; [8],24 h
same,plasma and brain lithium level profile after oral dosing,[5],spike in plasma and brain lithium levels at 24 h with considerably lower or undetectable levels at 48 h
same,"GFAP expression (gliogenesis; immunofluorescence and WB, GFAP to β-actin) vs PBS",[2],no significance difference
same,"MAP2 expression (immunofluorescence and WB, MAP2 to β-actin) vs PBS",[2],no significance difference
[Cl-].[Li+] [LiCl],neuronal cell differentiation (β-tubulin III and phospho-synapsin I immunofluorescence and WB) vs PBS,[1],no significant difference
same,"GFAP expression (gliogenesis; immunofluorescence and WB, GFAP to β-actin) vs PBS",[2],no significance difference
same,"MAP2 expression (immunofluorescence and WB, MAP2 to β-actin) vs PBS",[2],no significance difference
Cn1cc(C2=C(c3ccc(Cl)cc3Cl)C(=O)NC2=O)c2ccccc21 [SB-216763],"FXS behavioral phenotypes (hyperactivity, social and cognitive impairment)",Fmr1 KO mice [6],reverse these behavioral deficits
Cn1sc(=O)n(Cc2ccccc2)c1=O [TDZD-8],"FXS behavioral phenotypes (hyperactivity, social and cognitive impairment)",Fmr1 KO mice [6],reverse these behavioral deficits
"BDNF: brain derived neurotrophic factor, a potent modulator of learning and memory, synaptic plasticity and neurogenesis (protein, UniProt P23560 19-247, looked up) Neurotrophic factor BDNF …: APMKEANIRGQGGLAYPGVRTHGTLESVNGPKAGSRGLTSLADTFEHVIEELLDEDQKVRPNEENNKDADLYTSRVMLSSQVPLEPPLLFLLEEYKNYLDAANMSMRVRRHSDPARRGELSVCDSISEWVTAADKKTAVDMSGGTVTVLEKVPVSKGQLKQYFYETKCNPMGYTKEGCRGIDKRHWNSQCRTTQSYVRALTMDSKKRIGWRFIRIDTSCVCTLTIKRGR",impairment in hippocampal long term potentiation,Fmr1 KO mice [7],fully restored
